Tests used:
Experiment in all cases: cells
Assay type in all cases: cell-based
OVCAR-8 = system: OVCAR-8
CAKI-1 = system: CAKI-1
OVCAR-3 = system: OVCAR-3
OVCAR-5 = system: OVCAR-5
NCI-H460 = system: NCI-H460
CCRF-CEM = system: CCRF-CEM
LOX IMVI = conditions: Melanoma LOX IMV1
HOP-62 = system: HOP-62
A549/ATCC = system: A549/ATCC
SK-MEL-5 = system: SK-MEL-5
NCI-H23 = system: NCI-H23
M14 = system: M14
BT-549 = system: BT-549
PC-3 = system: PC-3
TK-10 = TK-10 (Renal Cancer), 10 μM, 48 hours
MDA-MB-231/ATCC = system: MDA-MB-231/ATCC
COLO 205 = system: COLO 205
HS 578T = system: HS 578T
SF-268 = system: SF-268
SK-MEL-2 = conditions: Melanoma SK-MEL-2
NCI/ADR-RES = system: NCI/ADR-RES
SF-539 = system: SF-539
DU-145 = system: DU-145
HCC-2998 = system: HCC-2998
SR = system: SR
NCI-H522 = system: NCI-H522
HCT-116 = system: HCT-116
NCI-H322M = system: NCI-H322M
SF-295 = system: SF-295
HL-60 (TB) = system: HL-60 (TB)
[1] = Homo sapiens, Non-Small Cell Lung Cancer HOP-62
[2] = Homo sapiens, Non-Small Cell Lung Cancer A549/ATCC
[3] = Homo sapiens, Non-Small Cell Lung Cancer NCI-H23
[4] = Homo sapiens, Breast Cancer MDA-MB-231/ATCC
[5] = Homo sapiens, Colon Cancer COLO 205
[6] = Homo sapiens, CNS Cancer SF-268
[7] = Homo sapiens, CNS Cancer SF-539
[8] = Homo sapiens, Colon Cancer HCT-116
[9] = Homo sapiens, CNS Cancer SF-295

## O=C1c2cc(Cl)ccc2-c2c(N3CCNCC3)nc3ccccc3c21 [SJ-10, 9-Chloro-6-(piperazin-1-yl)-11H-indeno[1,2-c]quinolin-11-one]
OVCAR-8; Homo sapiens, Ovarian Cancer OVCAR-8
  GI50: 8.66 µM
OVCAR-8; Homo sapiens, Ovarian Cancer OVCAR-8, read-out: LC50 (the source's name)
  CC50: > 100 µM
OVCAR-8; OVCAR-8 (Ovarian Cancer), 10 μM, 48 hours
  growth percentage: -46.09%
OVCAR-8; Ovarian Cancer OVCAR-8
  TGI: >100 µM
CAKI-1; CAKI-1 (Renal Cancer), 10 μM, 48 hours
  growth percentage: 17.84%
CAKI-1; Homo sapiens, Renal Cancer CAKI-1
  GI50: 2520 nM
CAKI-1; Homo sapiens, Renal Cancer CAKI-1, read-out: LC50 (the source's name)
  CC50: > 100 µM
CAKI-1; Renal Cancer CAKI-1
  TGI: >100 µM
OVCAR-3; Homo sapiens, Ovarian Cancer OVCAR-3
  GI50: 12.8 µM
OVCAR-3; Homo sapiens, Ovarian Cancer OVCAR-3, read-out: LC50 (the source's name)
  CC50: > 100 µM
OVCAR-3; OVCAR-3 (Ovarian Cancer), 10 μM, 48 hours
  growth percentage: 22.86%
OVCAR-3; Ovarian Cancer OVCAR-3
  TGI: >100 µM
OVCAR-5; Homo sapiens, Ovarian Cancer OVCAR-5
  GI50: 34.5 µM
OVCAR-5; Homo sapiens, Ovarian Cancer OVCAR-5, read-out: LC50 (the source's name)
  CC50: > 100 µM
OVCAR-5; OVCAR-5 (Ovarian Cancer), 10 μM, 48 hours
  growth percentage: 39.14%
OVCAR-5; Ovarian Cancer OVCAR-5
  TGI: >100 µM
NCI-H460; Homo sapiens, Non-Small Cell Lung Cancer NCI-460
  GI50: 4.15 µM
NCI-H460; Homo sapiens, Non-Small Cell Lung Cancer NCI-460, read-out: LC50 (the source's name)
  CC50: > 100 µM
NCI-H460; NCI-H460 (Non-Small Cell Lung Cancer), 10 μM, 48 hours
  growth percentage: -66.36%
NCI-H460; Non-Small Cell Lung Cancer NCI-460
  TGI: >100 µM
CCRF-CEM; CCRF-CEM (Leukemia), 10 μM, 48 hours
  growth percentage: -35.45%
CCRF-CEM; Homo sapiens, Leukemia CCRF-CEM
  GI50: 6.32 µM
CCRF-CEM; Homo sapiens, Leukemia CCRF-CEM, read-out: LC50 (the source's name)
  CC50: > 100 µM
CCRF-CEM; Leukemia CCRF-CEM
  TGI: >100 µM
LOX IMVI; Homo sapiens, LOX IMVI
  GI50: 4.74 µM
LOX IMVI; Homo sapiens, LOX IMVI, read-out: LC50 (the source's name)
  CC50: > 100 µM
LOX IMVI
  TGI: >100 µM
HOP-62; HOP-62 (Non-Small Cell Lung Cancer), 10 μM, 48 hours
  growth percentage: -61.80%
HOP-62; [1]
  GI50: 12.3 µM
  LC50 (50% lethal concentration): > 100 µM
HOP-62; Non-Small Cell Lung Cancer HOP-62
  TGI: >100 µM
A549/ATCC; A549/ATCC (Non-Small Cell Lung Cancer), 10 μM, 48 hours
  growth percentage: 18.70%
A549/ATCC; [2]
  GI50: 4.87 µM
  LC50 (50% lethal concentration): > 100 µM
A549/ATCC; Non-Small Cell Lung Cancer A549/ATCC
  TGI: >100 µM
SK-MEL-5; Homo sapiens, Melanoma SK-MEL-5
  GI50: 4.1 µM
SK-MEL-5; Homo sapiens, Melanoma SK-MEL-5, read-out: LC50 (the source's name)
  CC50: > 100 µM
SK-MEL-5; Melanoma SK-MEL-5
  TGI: >100 µM
SK-MEL-5; SK-MEL-5 (Melanoma), 10 μM, 48 hours
  growth percentage: 59.18%
NCI-H23; [3]
  GI50: 6.65 µM
  LC50: > 100 µM
NCI-H23; NCI-H23 (Non-Small Cell Lung Cancer), 10 μM, 48 hours
  growth percentage: 49.19%
NCI-H23; Non-Small Cell Lung Cancer NCI-H23
  TGI: >100 µM
M14; Homo sapiens, Melanoma M14
  GI50: 7.49 µM
M14; Homo sapiens, Melanoma M14, read-out: LC50 (the source's name)
  CC50: > 100 µM
M14; M14 (Melanoma), 10 μM, 48 hours
  growth percentage: -56.24%
M14; Melanoma M14
  TGI: >100 µM
BT-549; BT-549 (Breast Cancer), 10 μM, 48 hours
  growth percentage: 58.35%
BT-549; Breast Cancer BT-549
  TGI: >100 µM
BT-549; Homo sapiens, Breast Cancer BT-549
  GI50: 10.6 µM
BT-549; Homo sapiens, Breast Cancer BT-549, read-out: LC50 (the source's name)
  CC50: > 100 µM
PC-3; Homo sapiens, Prostate Cancer PC-3
  GI50: 5.93 µM
PC-3; Homo sapiens, Prostate Cancer PC-3, read-out: LC50 (the source's name)
  CC50: > 100 µM
PC-3; PC-3 (Prostate Cancer), 10 μM, 48 hours
  growth percentage: -58.51%
PC-3; Prostate Cancer PC-3
  TGI: >100 µM
TK-10
  growth percentage: 47.07%
MDA-MB-231/ATCC; Breast Cancer MDA-MB-231/ATCC
  TGI: >100 µM
MDA-MB-231/ATCC; [4]
  GI50: 7.23 µM
  LC50 (concentration giving 50% net cell kill): > 100 µM
MDA-MB-231/ATCC; MDA-MB-231/ATCC (Breast Cancer), 10 μM, 48 hours
  growth percentage: -10.45%
COLO 205; COLO 205 (Colon Cancer), 10 μM, 48 hours
  growth percentage: -81.49%
COLO 205; Colon Cancer COLO 205
  TGI: >100 µM
COLO 205; [5]
  GI50: 12.2 µM
  LC50 (50% lethal concentration): > 100 µM
HS 578T; Breast Cancer HS 578T
  TGI: >100 µM
HS 578T; HS 578T (Breast Cancer), 10 μM, 48 hours
  growth percentage: 60.88%
HS 578T; Homo sapiens, Breast Cancer HS 578T
  GI50: 4.77 µM
HS 578T; Homo sapiens, Breast Cancer HS 578T, read-out: LC50 (the source's name)
  CC50: > 100 µM
SF-268; CNS Cancer SF-268
  TGI: >100 µM
SF-268; [6]
  GI50: 8.71 µM
  LC50: > 100 µM
SF-268; SF-268 (CNS Cancer), 10 μM, 48 hours
  growth percentage: 34.33%
SK-MEL-2; Homo sapiens
  GI50: 7.36 µM
SK-MEL-2; Homo sapiens, read-out: LC50 (the source's name)
  CC50: > 100 µM
SK-MEL-2
  TGI: >100 µM
NCI/ADR-RES; Homo sapiens, Ovarian Cancer NCI/ADR-RES
  GI50: 22.5 µM
NCI/ADR-RES; Homo sapiens, Ovarian Cancer NCI/ADR-RES, read-out: LC50 (the source's name)
  CC50: > 100 µM
NCI/ADR-RES; NCI/ADR-RES (Ovarian Cancer), 10 μM, 48 hours
  growth percentage: -4.00%
NCI/ADR-RES; Ovarian Cancer NCI/ADR-RES
  TGI: >100 µM
SF-539; CNS Cancer SF-539
  TGI: >100 µM
SF-539; [7]
  GI50: 14.2 µM
  LC50 (concentration giving 50% net cell kill): > 100 µM
SF-539; SF-539 (CNS Cancer), 10 μM, 48 hours
  growth percentage: 36.91%
DU-145; DU-145 (Prostate Cancer), 10 μM, 48 hours
  growth percentage: -41.83%
DU-145; Homo sapiens, Prostate Cancer DU-145
  GI50: 4.79 µM
DU-145; Homo sapiens, Prostate Cancer DU-145, read-out: LC50 (the source's name)
  CC50: > 100 µM
DU-145; Prostate Cancer DU-145
  TGI: >100 µM
HCC-2998; Colon Cancer HCC-2998
  TGI: >100 µM
HCC-2998; HCC-2998 (Colon Cancer), 10 μM, 48 hours
  growth percentage: -55.83%
HCC-2998; Homo sapiens, Colon Cancer HCC-2998
  GI50: 30.9 µM
HCC-2998; Homo sapiens, Colon Cancer HCC-2998, read-out: LC50 (the source's name)
  CC50: > 100 µM
SR; Homo sapiens, Leukemia SR
  GI50: 3.09 µM
  LC50 (50% lethal concentration): > 100 µM
SR; Leukemia SR
  TGI: >100 µM
SR; SR (Leukemia), 10 μM, 48 hours
  growth percentage: -55.19%
NCI-H522; Homo sapiens, Non-Small Cell Lung Cancer NCI-H522
  GI50: 3.98 µM
NCI-H522; Homo sapiens, Non-Small Cell Lung Cancer NCI-H522, read-out: LC50 (the source's name)
  CC50: > 100 µM
NCI-H522; NCI-H522 (Non-Small Cell Lung Cancer), 10 μM, 48 hours
  growth percentage: 18.08%
NCI-H522; Non-Small Cell Lung Cancer NCI-H522
  TGI: >100 µM
HCT-116; Colon Cancer HCT-116
  TGI: >100 µM
HCT-116; HCT-116 (Colon Cancer), 10 μM, 48 hours
  growth percentage: -83.19%
HCT-116; [8]
  GI50: 5.42 µM
  LC50 (50% lethal concentration): > 100 µM
NCI-H322M; Homo sapiens, Non-Small Cell Lung Cancer NCI-H322M
  GI50: 5.62 µM
NCI-H322M; Homo sapiens, Non-Small Cell Lung Cancer NCI-H322M, read-out: LC50 (the source's name)
  CC50: > 100 µM
NCI-H322M; NCI-H322M (Non-Small Cell Lung Cancer), 10 μM, 48 hours
  growth percentage: 35.89%
NCI-H322M; Non-Small Cell Lung Cancer NCI-H322M
  TGI: >100 µM
SF-295; CNS Cancer SF-295
  TGI: >100 µM
SF-295; [9]
  GI50: 7.79 µM
  LC50 (concentration killing 50% of cells): > 100 µM
SF-295; SF-295 (CNS Cancer), 10 μM, 48 hours
  growth percentage: 23.75%
HL-60 (TB); HL-60 (TB) (Leukemia), 10 μM, 48 hours
  growth percentage: -38.36%
HL-60 (TB); Homo sapiens, Leukemia HL-60(TB)
  GI50: 36.9 µM
HL-60 (TB); Homo sapiens, Leukemia HL-60(TB), read-out: LC50 (the source's name)
  CC50: > 100 µM
HL-60 (TB); Leukemia HL-60(TB)
  TGI: >100 µM

From patent US20150197492A1, “NOVEL INDENO[1,2-c]QUINOLIN-11-ONE DERIVATIVES, PREPARATION METHOD AND APPLICATION THEREOF” (National Defense Medical Center, priority 2014, published 2015)
